Values quoted from earlier work in US5364629A, “Device and method for enhanced administration of physostigmine” (priority 1991, dated 1994).

Experiments:
[1] = systemic use
[2] = tablets
[3] = early observation, myasthenia gravis background
[4] = American Journal of Psychiatry, July 1979
[5] = Davis, et al, Science, Volume 201, p. 272 (1978)

## CNC(=O)Oc1ccc2c(c1)[C@]1(C)CCN(C)[C@@H]1N2C [Physostigmine, physostigmine]
[1]
  therapeutic window: narrow therapeutic window
[2]
  drug blood levels for multiple oral doses: ranging from a maximum above the required level (and possibly in the toxic range) to a minimum which may be below the effective dose
[3]
  strength of muscular contraction: increased strength of muscular contraction
[4]
  effect on tardive dyskinesia: positive: therapeutic effect on tardive dyskinesia
[5]
  retrieval of information from long-term memory: retrieval of information from long-term memory was also improved
  storage of information into long-term memory: significantly enhanced storage of information into long-term memory
